Results on 21 compounds are retold here after US12649750B2, “Macrocyclic compounds, compositions, and methods of using thereof” (Sionna Therapeutics Inc., priority 2022, dated 2026).

SMILES strings stand for the structures.

In the experiment the target is T1, NBD1 (Homo sapiens, UniProt P13569).
T1 construct: Purified recombinant NBD1 was produced using previously described methods; made in house
T1 sequence (P13569 423-646 limits assumed): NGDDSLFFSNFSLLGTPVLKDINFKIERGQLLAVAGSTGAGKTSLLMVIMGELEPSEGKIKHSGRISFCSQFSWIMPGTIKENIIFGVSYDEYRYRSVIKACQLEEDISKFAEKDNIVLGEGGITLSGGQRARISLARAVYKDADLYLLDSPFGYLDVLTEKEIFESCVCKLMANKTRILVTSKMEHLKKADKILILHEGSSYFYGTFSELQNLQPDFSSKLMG
In words: Aggregation analysis using differential static light scattering (DSLS), thermal stability of NBD1 (ΔTagg). The format is binding. To be noted: ΔTagg versus DMSO control, NBD1 0.2 mg/ml. Here is the method: Example 386. Aggregation Analysis Using Differential Static Light Scattering (DSLS)
Purified recombinant NBD1 was produced using previously described methods (A. Schmidt, J. L. Mendoza, P. J. Thomas (2011) Biochemical and Biophysical Approaches to Probe CFTR Structure (365-376) M. D. Amaral, K. Kunzelmann (eds.), Cystic Fibrosis, Methods in Molecular Biology 741, Springer Science+Business Media). The effect of test compounds on thermal stability of NBD1 was evaluated by differential static light scattering (DSLS) using the Harbinger Stargazer-384 instrument (Epiphyte Three, Toronto, Canada). Test compounds were dissolved and diluted to desired concentrations in 100% DMSO. The compounds or DMSO controls (100 nL) were stamped into wells of a […] low volume optical plate (Corning Inc., Corning, NY) using the Echo 555 acoustic liquid handler (Labcyte Inc., San Jose, CA).
NBD1 protein was diluted to 0.2 mg/ml in S200 buffer (50 mM Tris-HCl, 150 mM NaCl, 5 mM MgCl2, 2 mM ATP, 2 mM DTT, pH7.6) containing 1% glycerol. 10 uL of protein solution was aliquoted into the 384-well plate harboring the test compounds and 10 uL mineral oil was overlaid onto the protein solution, using the epMotion robotic liquid handler (Eppendorf North America, Hauppauge, NY). After placing into the Stargazer instrument, the plate was heated at 1° C. per minute to 70° C. Images were captured from 25° C. to 70° C. every 0.5° C. At the end of the experiment run, instrument software integrated image files and analyzed data automatically. A […] regression curve was generated for each well, representing the increase in light scattering over time. A temperature of aggregation (Tagg) was calculated based on the inflection point of the curve. To better compare data across experiments the average Tagg for DMSO control wells was calculated and subtracted from values for wells containing compounds to obtain a “ΔTagg” value. These ΔTagg values reflect stabilizing efficacy of the compounds. As set forth in Table 2 below, an ΔTagg value less than or equal to 5° C. is marked “A”; a value above 5° C. and less than or equal to 10° C. is marked “B”; a value greater than 10° C. and less than or equal to 25° C. is marked “C”.
Turning to `CC(=O)NC1CS(=O)(=O)CC(C)(C)CCC[C@](C)(c2cccc(C[C@@H](C)C(=O)O)c2)c2nc(n(C)n2)-c2cc(ccc2F)Oc2c(F)c(F)c3[nH]ccc3c21` (single isomer, unassigned) [Compound 369B], the “DSLS 3D (100 μM ΔT)” value was “B (a value above 5 °C and less than or equal to 10 °C is marked “B”)”.

On to `C[C@@H](Cc1cccc([C@@]2(C)CCCC(C)(C)CS(=O)(=O)CC(N)c3c(c(F)cc4[nH]ccc34)Sc3ccc(F)c(c3)-c3nc2nn3C)c1)C(N)=O` (single isomer, unassigned) [Compound 370A], for which the “DSLS 3D (100 μM ΔT)” value is “B (a value above 5 °C and less than or equal to 10 °C is marked “B”)”.

Take `C[C@@H](Cc1cccc([C@@]2(C)CCCC(C)(C)CS(=O)(=O)CC(N)c3c(c(F)cc4[nH]ccc34)Sc3ccc(F)c(c3)-c3nc2nn3C)c1)C(N)=O` (single isomer, unassigned) [Compound 370B]: the “DSLS 3D (100 μM ΔT)” value was “A (an ΔTagg value less than or equal to 5 °C is marked “A”)”.

On to `COCC(Cc1cccc([C@@]2(C)CCCC(C)(C)CS(=O)(=O)CCc3c(c(F)c(F)c4[nH]ccc34)[S+]([O-])c3ccc(F)c(c3)-c3nc2nn3C)c1)C(=O)O` (single isomer, unassigned) [Compound 371], for which the “DSLS 3D (100 μM ΔT)” value is “B (a value above 5 °C and less than or equal to 10 °C is marked “B”)”.

In the case of `COCC(Cc1cccc([C@@]2(C)CCCC(C)(C)CS(=O)(=O)CCc3c(c(F)c(F)c4[nH]ccc34)[S+]([O-])c3ccc(F)c(c3)-c3nc2nn3C)c1)C(=O)O` (single isomer, unassigned) [Compound 372], the “DSLS 3D (100 μM ΔT)” value is “B (a value above 5 °C and less than or equal to 10 °C is marked “B”)”.

With `COCC(Cc1cccc([C@@]2(C)CCCC(C)(C)CS(=O)(=O)CCc3c(c(F)c(F)c4[nH]ccc34)[S+]([O-])c3ccnc(c3)-c3nc2nn3C)c1)C(=O)O` (single isomer, unassigned) [Compound 374], the “DSLS 3D (100 μM ΔT)” value is “B (a value above 5 °C and less than or equal to 10 °C is marked “B”)”.

As to `COCC(Cc1cccc([C@@]2(C)CCCC(C)(C)CS(=O)(=O)CCc3c(c(F)c(F)c4[nH]ccc34)[S+]([O-])c3ccnc(c3)-c3nc2nn3C)c1)C(=O)O` (single isomer, unassigned) [Compound 375], the “DSLS 3D (100 μM ΔT)” value was “B (a value above 5 °C and less than or equal to 10 °C is marked “B”)”.

Turning to `C[C@H](Cc1cccc([C@@]2(C)CCCC(C)(C)CS(=O)(=O)CCc3c(c(F)cc4[nH]ccc34)[S+]([O-])c3cc(c(F)cc3N)-c3nc2nn3C)c1)C(=O)O` (single isomer, unassigned) [Compound 379A], the “DSLS 3D (100 μM ΔT)” value was “A (an ΔTagg value less than or equal to 5 °C is marked “A”)”.

For `C[C@H](Cc1cccc([C@@]2(C)CCCC(C)(C)CS(=O)(=O)CCc3c(c(F)cc4[nH]ccc34)[S+]([O-])c3cc(c(F)cc3N)-c3nc2nn3C)c1)C(=O)O` (single isomer, unassigned) [Compound 379B], the “DSLS 3D (100 μM ΔT)” value was “A (an ΔTagg value less than or equal to 5 °C is marked “A”)”.

As for `C[C@H](Cc1cccc(C2NCCOCCS(=O)(=O)Cc3c(c(F)c(F)c4[nH]ccc34)Oc3ccc(F)c(c3)-c3nc2nn3C)c1)C(=O)O` (single isomer, unassigned) [Compound 381A], the “DSLS 3D (100 μM ΔT)” value was “A (an ΔTagg value less than or equal to 5 °C is marked “A”)”.

`C[C@H](Cc1cccc(C2NCCOCCS(=O)(=O)Cc3c(c(F)c(F)c4[nH]ccc34)Oc3ccc(F)c(c3)-c3nc2nn3C)c1)C(=O)O` (single isomer, unassigned) [Compound 381B]: the “DSLS 3D (100 μM ΔT)” value is “A (an ΔTagg value less than or equal to 5 °C is marked “A”)”.

As for `C[C@H](Cc1cccc([C@@]2(C)CCCC(C)(C)CS(=O)(=O)CC(N)c3c(c(F)c(F)c4[nH]ccc34)Oc3ccc(F)c(c3)-c3nc2nn3C)c1)C(N)=O` (single isomer, unassigned) [Compound 385A], the “DSLS 3D (100 μM ΔT)” value was “B (a value above 5 °C and less than or equal to 10 °C is marked “B”)”.

For the compound `C[C@H](Cc1cccc([C@@]2(C)CCCC(C)(C)CS(=O)(=O)CC(N)c3c(c(F)c(F)c4[nH]ccc34)Oc3ccc(F)c(c3)-c3nc2nn3C)c1)C(N)=O` (single isomer, unassigned) [Compound 385B], the “DSLS 3D (100 μM ΔT)” value is “A (an ΔTagg value less than or equal to 5 °C is marked “A”)”.

Turning to `O=C(O)CCc1cccc(C2CCCCCCS(=O)(=O)CCc3c(c(F)cc4[nH]ccc34)Oc3ccc(F)c(c3)-c3ncc2[nH]3)c1` (stereo not drawn) [Compound 35, 3-[3-(23,29-Difluoro-13,13-dioxo-25-oxa-13λ6-thia-3,20,31-triazapentacyclo[24.3.1.12,5.016,24.017,21]hentriaconta-1(30),2,4,16,18,21,23,26,28-nonaen-6-yl)phenyl]propanoic Acid], the “DSLS 3D (100 μM ΔT)” value is “C (a value greater than 10 °C and less than or equal to 25 °C is marked “C”)”.

In the case of `O=C(O)CCc1cccc(C2CCCCCS(=O)(=O)CCc3c(c(F)cc4[nH]ccc34)Oc3ccc(F)c(c3)-c3ncc2[nH]3)c1` (stereo not drawn) [Compound 36, 3-[3-(22,28-Difluoro-12,12-dioxo-24-oxa-12λ6-thia-3,19,30-triazapentacyclo[23.3.1.12,5.015,23.016,20]triaconta-1(29),2,4,15,17,20,22,25,27-nonaen-6-yl)phenyl]propanoic Acid], the “DSLS 3D (100 μM ΔT)” value is “C (a value greater than 10 °C and less than or equal to 25 °C is marked “C”)”.

`CN1CCS(=O)(=O)CCC(C)(c2cccc(CCC(=O)O)c2)c2cnc([nH]2)-c2cc(ccc2F)Oc2c(F)cc3[nH]ccc3c2CC1=O` (stereo not drawn) [Compound 38, 3-[3-(22,28-Difluoro-6,12-dimethyl-9,9,13-trioxo-24-oxa-9λ6-thia-3,12,19,30-tetrazapentacyclo[23.3.1.12,5.015,23.016,20]triaconta-1(29),2,4,15,17,20,22,25,27-nonaen-6-yl)phenyl]propanoic Acid]: the “DSLS 3D (100 μM ΔT)” value was “C (a value greater than 10 °C and less than or equal to 25 °C is marked “C”)”.

As to `CN1CCS(=O)(=O)CCC(C)(c2cccc(CCC(=O)O)c2)c2cnc([nH]2)-c2cc(ccc2F)Oc2c(F)cc3[nH]ccc3c2CCC1=O` (stereo not drawn) [Compound 39, 3-[3-(23,29-Difluoro-6,12-dimethyl-9,9,13-trioxo-25-oxa-9λ6-thia-3,12,20,31-tetrazapentacyclo[24.3.1.12,5.016,24.017,21]hentriaconta-1(30),2,4,16,18,21,23,26,28-nonaen-6-yl)phenyl]propanoic Acid], the “DSLS 3D (100 μM ΔT)” value is “B (a value above 5 °C and less than or equal to 10 °C is marked “B”)”.

With `CC1(C)CCCC(C)(c2cccc(CCC(=O)O)c2)c2csc(n2)-c2cc(ccc2F)Oc2c(F)cc3[nH]ccc3c2CCS(=O)(=O)C1` (stereo not drawn) [Compound 49, 3-[3-(22,28-Difluoro-6,10,10-trimethyl-12,12-dioxo-24-oxa-3,12lambda6-dithia-19,30-diazapentacyclo[23.3.1.12,5.015,23.016,20]triaconta-1(29),2(30),4,15,17,20,22,25,27-nonaen-6-yl)phenyl]propanoic acid], the “DSLS 3D (100 μM ΔT)” value is “C (a value greater than 10 °C and less than or equal to 25 °C is marked “C”)”.

As to `CCOC(=O)[C@@H](C)Cc1cccc(C2CCCC(C)(C)CS(=O)(=O)CCc3c(c(F)cc4[nH]ccc34)C(=O)c3cccc(c3)-c3ccn2n3)c1` (stereo partly drawn) [Compound 161, Ethyl (2S)-3-[3-(22-fluoro-10,10-dimethyl-12,12,24-trioxo-12λ6-thia-5,19,30-triazapentacyclo[23.3.1.12,5.015,23.016,20]triaconta-1(29),2(30),3,15,17,20,22,25,27-nonaen-6-yl)phenyl]-2-methyl-propanoate], the “DSLS 3D (100 μM ΔT)” value is “A (an ΔTagg value less than or equal to 5 °C is marked “A”)”.

In the case of `C[C@H](Cc1cccc([C@@]2(C)CCCC(C)(C)CS(=O)(=O)CCc3c(c(F)c(F)c4[nH]ccc34)S(=O)(=O)c3ccnc(c3)-c3nc2nn3C)c1)C(=O)O` [Compound 301, (2R)-3-[3-[(6R)-21,22-difluoro-3,6,10,10-tetramethyl-12,12,24,24-tetraoxo-12λ6,24λ6-dithia-3,4,19,28,30-pentazapentacyclo[23.3.1.12,5.015,23.016,20]triaconta-1(29),2(30),4,15,17,20,22,25,27-nonaen-6-yl]phenyl]-2-methyl-propanoic Acid], the “DSLS 3D (100 μM ΔT)” value is “A (an ΔTagg value less than or equal to 5 °C is marked “A”)”.

With `Cn1nc2nc1-c1cc(ccc1F)Sc1c(F)cc3[nH]ccc3c1CCS(=O)(=O)CC(C)(C)CCC[C@]2(C)c1cccc([C@H](O)CO)c1` [Compound 302A, (1S)-1-[3-[(6R)-22,28-Difluoro-3,6,10,10-tetramethyl-12,12-dioxo-12λ6,24-dithia-3,4,19,30-tetrazapentacyclo[23.3.1.12,5.015,23.016,20]triaconta-1(29),2(30),4,15,17,20,22,25,27-nonaen-6-yl]phenyl]ethane-1,2-diol], the “DSLS 3D (100 μM ΔT)” value was “B (a value above 5 °C and less than or equal to 10 °C is marked “B”)”.
